Assay results from patent US20160067255A1, “METHODS OF TREATING OR PREVENTING HIV IN PATIENTS USING A COMBINATION OF TENOFOVIR ALAFENAMIDE AND DOLUTEGRAVIR” (priority 2014, published 2016).

Assay: Oral pharmacokinetics of TAF alone or in combination with dolutegravir in male beagle dogs (plasma, LC/MS)
Details: dog; for half-life: T1/2 (estimated terminal elimination half-life)
Method: TAF was dosed at 5 mg/kg (as free base) orally in solution to fasted male beagle dogs (N=6 animals, mean weight 10 kg). On Day 1, TAF was administered alone. On days 2, 3, 4 and 5, 3 mg/kg of Dolutegravir (DTG) was administered alone (as free acid). Both compounds were administered on Day 6. The plasma pharmacokinetic profiles of TAF and its nucleotide metabolite tenofovir (TFV) were determined by LC/MS in samples taken on Day 1 and Day 6 of dosing.
The oral dosing formulation for TAF was 0.1% Hydroxypropylmethylcellulose K100LV, 0.1% Polysorbate 20, 99.8% deionized water. For dolutegravir, the oral dosing formulation was 0.5% Hydroxypropylmethylcellulose LV 100 and 0.1% Tween 20 in deionized water.
The animals were fasted overnight prior to each dose administration and up to 4 hr after dosing. The blood samples were collected on days 1 and 6 predose and at the following time points following dosing: 0.25, 0.5, 1, 2, 4, 6, 8, 12 and 24 hour. The blood samples were collected into Vacutainer™ tubes containing Sodium Fluoride/Potassium Oxalate (BD Biosciences). The blood samples were centrifuged at 4° C. to separate plasma. Plasma samples were frozen and stored in −70° C. freezers.
Plasma was prepared by protein precipitation by adding acetonitrile to a final concentration of 70% in the presence of internal standard. Following filtration to remove precipitated protein, samples were evaporated, reconstituted with mobile phase A (0.2% formate in water) and analyzed using injections of 5 μl for analysis.

[1] = Day 6 (TAF + DTG) versus Day 1 (TAF alone)
[2] = male, beagle, in vivo, po, 5 mg/kg, TAF in plasma, Day 1, TAF 5 mg/kg oral alone, fasted male beagle dogs, mean n=6
[3] = male, beagle, in vivo, po, 5 mg/kg, TAF in plasma, Day 6, TAF 5 mg/kg oral co-administered with DTG 3 mg/kg after 4 daily doses of DTG, male beagle dogs, mean n=6
[4] = male, beagle, in vivo, po, 5 mg/kg

Row | TFV levels in Day 1 pre-dose plasma samples (male, beagle, in vivo) [nM] | AUC(0-t) [4] [µM·h] | AUC(0-inf) (male, beagle, in vivo, po, 5 mg/kg, AUC0-inf) [µM·h] | Cmax [4] [nM] | half-life [4] [min] | Tmax [4] [min] | SMILES | increase of maximal concentrations (Cmax) of TAF upon coadministration with DTG [1] | increase of oral exposure of TAF upon coadministration with DTG [1] | AUC(0-t) (male, beagle, in vivo, po, 5 mg/kg, AUC0-24hr, TAF in plasma, Day 1, TAF 5 mg/kg oral alone, fasted male beagle dogs, mean n=6) [µM·h] | AUC(0-t) (male, beagle, in vivo, po, 5 mg/kg, AUC0-24hr, TAF in plasma, Day 6, TAF 5 mg/kg oral co-administered with DTG 3 mg/kg after 4 daily doses of DTG, male beagle dogs, mean n=6) [µM·h] | Cmax [2] [nM] | Cmax [3] [nM] | half-life [2] [min] | Tmax [2] [min] | Tmax [3] [min]
1 |  |  |  |  |  |  | CC(C)OC(=O)[C@H](C)N[P@](=O)(CO[C@H](C)Cn1cnc2c(N)ncnc21)Oc1ccccc1 [TAF, 9-[(R)-2-[[(S)-[[(S)-1-(isopropoxycarbonyl)ethyl]amino]phenoxyphosphinyl]-methoxy]propyl]adenine] | approximately 2 fold | approximately 2 fold | 0.174 | 0.345 | 412 | 818 | 11.4 | 17.4 | 15
2 | < 10 | 1.6 | 2.92 | 253 | 1500 | 75 | C[C@H](Cn1cnc2c(N)ncnc21)OCP(=O)(O)O [TFV, Tenofovir] |  |  |  |  |  |  |  |  | 
